Experimental findings from paper PMC6812009, “Covalent Aurora A regulation by the metabolic integrator coenzyme A” (Redox Biology, 2019) are described below.

Holding throughout (assay): Kinase profiling screen (radioactive filter-binding assay)
Common to all, as to type: biochemical

The target in one assay is T1, BRSK2 (Homo sapiens, UniProt Q8IWQ3).
T1 sequence (Q8IWQ3 1-736): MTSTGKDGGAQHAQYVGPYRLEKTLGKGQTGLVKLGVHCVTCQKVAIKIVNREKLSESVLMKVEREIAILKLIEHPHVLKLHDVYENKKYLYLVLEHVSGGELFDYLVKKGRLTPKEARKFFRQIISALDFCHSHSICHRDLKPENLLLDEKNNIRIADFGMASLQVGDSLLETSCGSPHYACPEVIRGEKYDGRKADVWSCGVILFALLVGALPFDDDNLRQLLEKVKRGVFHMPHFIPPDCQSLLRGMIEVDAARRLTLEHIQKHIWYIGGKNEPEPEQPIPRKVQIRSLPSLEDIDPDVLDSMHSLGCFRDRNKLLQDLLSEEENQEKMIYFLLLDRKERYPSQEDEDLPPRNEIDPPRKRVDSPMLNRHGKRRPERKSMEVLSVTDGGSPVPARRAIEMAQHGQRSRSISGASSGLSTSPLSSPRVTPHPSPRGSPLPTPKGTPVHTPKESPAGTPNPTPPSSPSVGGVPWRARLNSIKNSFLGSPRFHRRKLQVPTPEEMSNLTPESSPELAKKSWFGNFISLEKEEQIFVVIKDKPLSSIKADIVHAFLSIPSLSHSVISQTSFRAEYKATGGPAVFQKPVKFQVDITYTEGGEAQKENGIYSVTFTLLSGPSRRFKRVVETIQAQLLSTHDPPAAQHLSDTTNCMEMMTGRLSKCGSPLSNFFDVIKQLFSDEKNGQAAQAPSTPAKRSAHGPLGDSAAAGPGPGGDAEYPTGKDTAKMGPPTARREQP
To be noted: 100 μM compound, 50 μM ATP; read-out: Kinase activity, % of activity in the absence of inhibitor. The essentials:
(§1)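 CoA, dpCoA and ADP were each tested in vitro, in duplicate, at 100 μM final concentration as part of a 117-kinase panel. Recombinant kinases were used with model substrates and optimal ATP concentrations.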

Another assay concerns the target CLK2 (Homo sapiens, UniProt P49760). To be noted: 100 μM compound, 5 μM ATP; read-out: Kinase activity, % of activity in the absence of inhibitor. The procedure, abridged: as §1
A further assay has as its target MNK1 (Homo sapiens, UniProt Q9BUB5). To be noted: 100 μM compound, 50 μM ATP; read-out: Kinase activity, % of activity in the absence of inhibitor. The procedure, abridged:
as §1

In a further assay the target is MSK1 (Homo sapiens, UniProt O75582). To be noted: 100 μM compound, 20 μM ATP; read-out: Kinase activity, % of activity in the absence of inhibitor. The procedure, abridged:
as §1

Another assay addresses PKCγ (Homo sapiens, UniProt P05129). To be noted: 100 μM compound, 20 μM ATP; read-out: Kinase activity, % of activity in the absence of inhibitor. The procedure, abridged: as §1
The target in the next assay is JNK1 (Homo sapiens, UniProt P45983). To be noted: 100 μM compound, 20 μM ATP; read-out: Kinase activity, % of activity in the absence of inhibitor. The procedure, abridged:
as §1

Another assay concerns the target SYK (Homo sapiens, UniProt P43405). To be noted: 100 μM compound, 20 μM ATP; read-out: Kinase activity, % of activity in the absence of inhibitor. The essentials:
as §1

The target of a further assay is MARK2 (Homo sapiens, UniProt Q7KZI7). To be noted: 100 μM compound, 20 μM ATP; read-out: Kinase activity, % of activity in the absence of inhibitor. The essentials: as §1
The next assay has as its target T2, CHK1 (Homo sapiens, UniProt O14757).
T2 sequence (O14757 1-476): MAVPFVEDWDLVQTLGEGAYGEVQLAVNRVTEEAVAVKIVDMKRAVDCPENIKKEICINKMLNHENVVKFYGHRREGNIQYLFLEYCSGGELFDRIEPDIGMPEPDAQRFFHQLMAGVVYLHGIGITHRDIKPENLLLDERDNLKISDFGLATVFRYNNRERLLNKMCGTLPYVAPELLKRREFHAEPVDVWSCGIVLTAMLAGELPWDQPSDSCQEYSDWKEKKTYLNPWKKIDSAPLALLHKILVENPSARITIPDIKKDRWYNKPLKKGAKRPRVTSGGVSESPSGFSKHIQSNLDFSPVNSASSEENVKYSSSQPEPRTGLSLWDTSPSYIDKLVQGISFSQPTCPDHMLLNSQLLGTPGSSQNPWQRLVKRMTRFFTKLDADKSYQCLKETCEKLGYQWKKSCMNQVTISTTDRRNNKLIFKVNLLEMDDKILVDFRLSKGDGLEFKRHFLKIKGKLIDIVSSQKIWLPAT
To be noted: 100 μM compound, 20 μM ATP; read-out: Kinase activity, % of activity in the absence of inhibitor. The procedure, abridged: as §1

The target in a further assay is T3, ZAP70 (Homo sapiens, UniProt P43403).
T3 sequence (P43403 1-619): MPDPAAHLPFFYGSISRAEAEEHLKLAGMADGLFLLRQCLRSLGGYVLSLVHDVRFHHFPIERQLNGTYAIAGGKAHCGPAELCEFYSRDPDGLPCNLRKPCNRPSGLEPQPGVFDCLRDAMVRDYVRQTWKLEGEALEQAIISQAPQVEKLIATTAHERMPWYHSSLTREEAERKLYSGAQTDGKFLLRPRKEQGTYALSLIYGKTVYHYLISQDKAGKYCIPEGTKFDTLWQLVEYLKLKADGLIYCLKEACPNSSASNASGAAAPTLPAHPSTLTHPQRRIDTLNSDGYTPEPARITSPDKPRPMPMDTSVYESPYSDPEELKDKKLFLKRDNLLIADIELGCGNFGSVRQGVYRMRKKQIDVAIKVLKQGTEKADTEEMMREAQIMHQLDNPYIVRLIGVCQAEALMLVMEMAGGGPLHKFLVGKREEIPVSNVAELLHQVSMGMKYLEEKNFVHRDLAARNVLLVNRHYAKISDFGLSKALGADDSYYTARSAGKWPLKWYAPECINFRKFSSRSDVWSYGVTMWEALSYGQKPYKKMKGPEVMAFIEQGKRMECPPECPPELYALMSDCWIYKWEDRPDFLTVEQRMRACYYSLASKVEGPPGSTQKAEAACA
To be noted: 100 μM compound, 5 μM ATP; read-out: Kinase activity, % of activity in the absence of inhibitor. The procedure, abridged:
as §1

The target of the next assay is PHKγ1 (Homo sapiens, UniProt Q16816). To be noted: 100 μM compound, 50 μM ATP; read-out: Kinase activity, % of activity in the absence of inhibitor. The procedure, abridged:
as §1

Chain of CLK2 (P49760 whole entry): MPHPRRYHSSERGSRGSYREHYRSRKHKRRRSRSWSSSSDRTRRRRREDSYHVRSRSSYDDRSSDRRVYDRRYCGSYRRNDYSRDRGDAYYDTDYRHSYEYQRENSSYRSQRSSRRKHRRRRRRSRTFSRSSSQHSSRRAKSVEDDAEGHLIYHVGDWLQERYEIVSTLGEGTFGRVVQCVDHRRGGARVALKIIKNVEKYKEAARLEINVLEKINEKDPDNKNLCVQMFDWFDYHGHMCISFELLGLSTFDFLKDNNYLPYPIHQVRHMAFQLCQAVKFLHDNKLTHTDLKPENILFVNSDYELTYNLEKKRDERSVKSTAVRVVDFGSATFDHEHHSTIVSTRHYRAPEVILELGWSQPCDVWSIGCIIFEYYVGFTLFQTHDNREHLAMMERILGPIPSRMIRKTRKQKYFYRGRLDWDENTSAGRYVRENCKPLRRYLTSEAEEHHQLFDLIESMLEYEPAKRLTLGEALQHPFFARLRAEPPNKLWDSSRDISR
Chain of MNK1 (Q9BUB5 whole entry): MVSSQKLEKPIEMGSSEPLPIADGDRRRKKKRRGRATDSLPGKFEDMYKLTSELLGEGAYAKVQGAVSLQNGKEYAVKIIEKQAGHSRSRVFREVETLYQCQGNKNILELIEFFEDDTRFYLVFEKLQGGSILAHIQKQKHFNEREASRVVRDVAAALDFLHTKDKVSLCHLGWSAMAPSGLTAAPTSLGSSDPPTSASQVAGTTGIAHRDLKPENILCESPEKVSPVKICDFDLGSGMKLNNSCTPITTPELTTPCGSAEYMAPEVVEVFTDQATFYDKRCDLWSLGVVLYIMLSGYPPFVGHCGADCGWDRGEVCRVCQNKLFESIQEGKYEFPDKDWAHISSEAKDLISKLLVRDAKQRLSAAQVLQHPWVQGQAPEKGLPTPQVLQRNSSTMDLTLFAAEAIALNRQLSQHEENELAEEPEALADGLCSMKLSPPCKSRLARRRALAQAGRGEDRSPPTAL
Chain of MARK2 (Q7KZI7 whole entry): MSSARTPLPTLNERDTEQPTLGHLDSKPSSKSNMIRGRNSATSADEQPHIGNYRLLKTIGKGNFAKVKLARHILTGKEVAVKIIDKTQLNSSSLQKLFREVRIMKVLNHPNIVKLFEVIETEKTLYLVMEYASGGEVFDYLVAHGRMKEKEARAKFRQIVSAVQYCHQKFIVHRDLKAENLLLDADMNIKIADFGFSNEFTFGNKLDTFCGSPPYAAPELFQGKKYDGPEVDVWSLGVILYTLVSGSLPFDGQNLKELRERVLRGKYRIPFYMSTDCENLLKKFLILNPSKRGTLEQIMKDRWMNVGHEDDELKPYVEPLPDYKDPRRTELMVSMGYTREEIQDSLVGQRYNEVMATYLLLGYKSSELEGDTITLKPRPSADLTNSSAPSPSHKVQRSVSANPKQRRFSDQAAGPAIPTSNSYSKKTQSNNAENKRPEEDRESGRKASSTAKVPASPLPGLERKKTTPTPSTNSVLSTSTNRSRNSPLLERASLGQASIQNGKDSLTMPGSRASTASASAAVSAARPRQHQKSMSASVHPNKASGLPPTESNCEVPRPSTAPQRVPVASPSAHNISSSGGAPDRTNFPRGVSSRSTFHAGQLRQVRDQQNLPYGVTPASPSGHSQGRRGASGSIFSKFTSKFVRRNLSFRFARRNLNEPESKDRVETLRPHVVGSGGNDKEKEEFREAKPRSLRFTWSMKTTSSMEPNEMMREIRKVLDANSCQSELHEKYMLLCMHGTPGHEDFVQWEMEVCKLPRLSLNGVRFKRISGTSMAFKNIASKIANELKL
Chain of PHKγ1 (Q16816 whole entry): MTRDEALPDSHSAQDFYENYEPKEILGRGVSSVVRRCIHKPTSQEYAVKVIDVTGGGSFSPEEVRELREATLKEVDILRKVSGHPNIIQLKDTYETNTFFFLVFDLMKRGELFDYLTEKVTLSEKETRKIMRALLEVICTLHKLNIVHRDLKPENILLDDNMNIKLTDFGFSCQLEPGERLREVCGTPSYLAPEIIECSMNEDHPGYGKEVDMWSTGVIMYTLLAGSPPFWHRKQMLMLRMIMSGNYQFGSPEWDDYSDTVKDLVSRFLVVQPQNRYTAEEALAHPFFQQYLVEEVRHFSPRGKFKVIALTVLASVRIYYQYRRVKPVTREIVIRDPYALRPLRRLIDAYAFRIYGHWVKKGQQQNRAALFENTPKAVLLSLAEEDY
Chain of JNK1 (P45983 whole entry): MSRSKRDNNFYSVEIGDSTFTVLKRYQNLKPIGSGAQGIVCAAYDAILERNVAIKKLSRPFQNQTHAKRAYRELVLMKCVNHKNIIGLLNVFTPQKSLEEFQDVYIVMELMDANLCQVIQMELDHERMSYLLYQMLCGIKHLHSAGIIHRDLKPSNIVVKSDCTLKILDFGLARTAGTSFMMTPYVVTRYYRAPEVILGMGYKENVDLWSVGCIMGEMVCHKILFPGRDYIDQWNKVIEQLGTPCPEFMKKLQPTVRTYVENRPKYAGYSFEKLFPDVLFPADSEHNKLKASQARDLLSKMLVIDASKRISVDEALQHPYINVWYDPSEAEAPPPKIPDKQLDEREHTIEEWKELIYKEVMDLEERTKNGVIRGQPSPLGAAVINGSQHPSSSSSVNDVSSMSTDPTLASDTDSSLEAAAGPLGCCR
Chain of MSK1 (O75582 whole entry): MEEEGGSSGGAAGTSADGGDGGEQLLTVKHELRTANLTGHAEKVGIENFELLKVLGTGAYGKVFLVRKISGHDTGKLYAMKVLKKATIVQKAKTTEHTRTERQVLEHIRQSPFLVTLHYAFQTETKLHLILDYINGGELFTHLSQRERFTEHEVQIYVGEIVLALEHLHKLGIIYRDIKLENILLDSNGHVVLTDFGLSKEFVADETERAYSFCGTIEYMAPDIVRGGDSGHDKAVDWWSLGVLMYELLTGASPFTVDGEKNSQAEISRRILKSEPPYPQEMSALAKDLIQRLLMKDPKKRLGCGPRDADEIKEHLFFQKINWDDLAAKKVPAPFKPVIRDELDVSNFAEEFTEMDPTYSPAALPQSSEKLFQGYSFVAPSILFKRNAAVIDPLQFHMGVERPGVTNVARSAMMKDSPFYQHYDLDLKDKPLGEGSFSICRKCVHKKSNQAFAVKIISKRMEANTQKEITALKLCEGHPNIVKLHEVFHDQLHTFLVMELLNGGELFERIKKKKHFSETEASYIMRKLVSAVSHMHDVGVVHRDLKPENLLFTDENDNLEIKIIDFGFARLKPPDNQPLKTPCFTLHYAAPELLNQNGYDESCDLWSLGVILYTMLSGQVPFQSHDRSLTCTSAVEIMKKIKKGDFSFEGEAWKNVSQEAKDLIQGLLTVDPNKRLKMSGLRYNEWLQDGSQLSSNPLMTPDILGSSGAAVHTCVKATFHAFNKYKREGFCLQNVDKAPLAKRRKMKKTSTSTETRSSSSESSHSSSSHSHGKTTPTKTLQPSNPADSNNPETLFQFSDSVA

Take `Nc1ncnc2c1ncn2C1OC(COP(=O)(O)OP(=O)(O)O)C(O)C1O` (stereo not drawn) [ADP]: the activity at 100 µM on BRSK2 came out at 52.4%; at CLK2, 33.9%; on MNK1, 60.7%; at MSK1, 53.3%; at PKCγ, 71.9%; at JNK1 it was 53.9%. Moreover, the activity at 100 µM on SYK is 70.9%; on MARK2, 25%; on CHK1 it was 47.6%; on ZAP70, 13.2%; at PHKγ1, 75.6%.

`CC(C)(COP(=O)(O)OP(=O)(O)OC[C@H]1O[C@@H](n2cnc3c(N)ncnc32)[C@H](O)[C@@H]1OP(=O)(O)O)[C@@H](O)C(=O)NCCC(=O)NCCS` [CoA, Coenzyme A]: the activity at 100 µM was found to be 115% at BRSK2; 109% on CLK2; 150% on MNK1; 106% at MSK1; 70.2% on PKCγ; 85.4% at JNK1. Further, the activity at 100 µM is 98.3% at SYK; 93.1% on MARK2; 123% at CHK1; 89.7% on ZAP70; 105% at PHKγ1.

As to `CC(C)(COP(=O)(O)OP(=O)(O)OCC1OC(n2cnc3c(N)ncnc32)C(O)C1O)C(O)C(=O)NCCC(=O)NCCS` (stereo not drawn) [dpCoA, dephospho-CoA], the activity at 100 µM at BRSK2 stood at 88.8%; at CLK2, 80.1%; on MNK1 it was 84.2%; at MSK1, 70.5%; at PKCγ, 66.4%; at JNK1, 82.4%. Moreover, the activity at 100 µM at SYK is 106%; at MARK2, 81.5%; at CHK1 it was 78.8%; at ZAP70, 79.8%; on PHKγ1 it was 90.9%.
